This assay addresses XPD (S. acidocaldarius) (Sulfolobus acidocaldarius, UniProt Q4JC68). The settings on record: ssDNA-stimulated; temperature and pH not stated here.

Sequence of XPD (S. acidocaldarius) (Q4JC68 whole entry): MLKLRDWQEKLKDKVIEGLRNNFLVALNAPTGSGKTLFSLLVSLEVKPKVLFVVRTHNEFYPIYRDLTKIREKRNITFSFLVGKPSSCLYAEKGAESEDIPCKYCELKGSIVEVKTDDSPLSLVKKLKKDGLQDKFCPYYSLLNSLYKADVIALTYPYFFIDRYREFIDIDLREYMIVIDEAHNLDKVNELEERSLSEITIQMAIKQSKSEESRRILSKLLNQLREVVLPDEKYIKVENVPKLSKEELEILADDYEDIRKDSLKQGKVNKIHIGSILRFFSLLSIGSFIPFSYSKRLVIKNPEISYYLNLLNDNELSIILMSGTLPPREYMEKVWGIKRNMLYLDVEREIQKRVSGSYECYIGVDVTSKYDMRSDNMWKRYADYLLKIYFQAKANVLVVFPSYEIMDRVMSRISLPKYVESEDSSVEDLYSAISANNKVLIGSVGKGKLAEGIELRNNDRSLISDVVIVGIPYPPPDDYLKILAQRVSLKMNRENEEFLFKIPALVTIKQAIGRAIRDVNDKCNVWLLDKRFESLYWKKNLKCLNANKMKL

For the molecule `Nc1ncnc2c1ncn2[C@@H]1O[C@H](COP(=O)(O)OP(=O)(O)OP(=O)(O)O)[C@@H](O)[C@H]1O` [ATP], the ATPase rate result was “Plot of the ssDNA-stimulated ATPase activities of the indicated wild-type and mutant proteins”.

For the origin of these results see paper PMC3326533 (Cell, 2008).
